Source: patent US10100077B2, “6-aryl-9-glycosylpurines and use thereof” (UNIVERZITA PALACKEHO V OLOMOUCI, priority 2014, dated 2018)

Legend:
[1] = tested on: EpiDERM 3D model of epidermis; test: In vitro test of skin irritation in EpiDERM; type: cell-based
Experimental: EpiDERM™ is a 3D model of epidermis manufactured by Mattek company. The effects of tested substances are evaluated by MTT. 2 solutions (2 application forms) of the compounds 6-furfurylamino-9-β-D-arabinofuranosylpurine and 6-(3-methoxybenzylamino)-9-β-D-arabinofuranosylpurine in concentrations 1 mM a 200 microM in 0.5% DMSO/99.5% PBS were evaluated according to a standard protocol “INVITRO EpiDerm™ SKIN IRRITATION TEST”. After a preincubation of the tissues, 30 microliters of the application form solution were applied on the individual tissues. The exposition time was 60 minutes. Three tissues were used for each tested concentration as well as for controls. Following washing out of the applied solution, the tissues were incubated for 42 hour in order to allow a reparation of possible damage. In the next step, the tissue was incubated with MTT for 3 hours. The resulting formazan was extracted to isopropanol. Relative viability of the individual tissues was calculated as a percentage of viability of the average of the negative controls. Average viability of the tissues treated with 1 mM solution of the test substance was 99.3% for the compound 6-(3-methoxybenzylamino)-9-β-D-arabinofuranosylpurine and 98.0% for the compound 6-(furfurylamino)-9-β-D-arabinofuranosylpurine where 100% is an average viability of the tissues treated with the solvent only. None of the tested compounds in any of the concentrations caused any tissue damage or irritation. The compounds were evaluated as non-irritant in the tested concentrations.

[2] = tested on: Arabidopsis wild-type plants (Col-0) detached leaves; test: Differential gene expression study (RNA sequencing) in senescent detached leaves; conditions: 6 h, 10 μM
Experimental: Comparative gene expression analysis in Arabidopsis model was performed to gain information about the reprogramming of gene transcription when senescent leaves were treated with 6-(3-methoxybenzylamino)-9-β-D-arabinofuranosylpurine (3MeOBAPA).
For isolation of total RNA, Arabidopsis wild-type plants (Col-0) were used, which were either treated with 3MeOBAPA or left untreated. Wild-type plants were grown in soil for 30 days, and then leaves of similar size and chlorophyll content were cut and immediately used for the treatment. At least 20 detached leaves were submerged in 1×MS medium supplemented with 10 μM 3MeOBAPA. Control samples were mock treated with DMSO only. After incubation for 6 h or 48 h in the dark, detached leaves were frozen in liquid nitrogen and used for RNA isolation; 150 mg of liquid nitrogen-ground material was used per isolation. cDNA sequencing libraries were prepared with the Illumina TruSeq Stranded mRNA LT Sample Prep Kit (Illumina, San Diego, Calif.) according to standard Illumina's protocols and sequenced on HiSeq 2500 apparatus (50 bp single-end reads). […] To gain insight into the molecular mechanism of 3MeOBAPA action in Arabidopsis we decided to analyze the gene expression patterns via comparison of mock (DMSO)-treated plants with those obtained after i) short time treatment with 3MeOBAPA (6 h) and ii) long time treatment (48 h). This comparison leads to identification of group of genes with similar kinetic of expression and helps to understand possible mechanism of regulation. For data analysis, we performed ab initio method where sequencing reads were mapped to the reference genome.

logFC AT4G31950 Cytochrome P450 82C3 (CYP82C3) [2]: 0.37
SMILES: COc1cccc(CNc2ncnc3c2ncn3[C@@H]2O[C@H](CO)[C@@H](O)[C@@H]2O)c1 [6-(3-methoxybenzylamino)-9-β-D-arabinofuranosylpurine]
skin irritation evaluation ([1]; 1 mM and 200 microM in 0.5% DMSO/99.5% PBS): non-irritant | Average viability of the tissues ([1]; 1 mM solution, 60 minutes exposition, 100% = solvent only): 99.3% | logFC AT1G02790 Polygalacturonase 4 (PGA4) [2]: 1.67 | logFC AT1G05580 Cation/H(+) exchanger 23 (CHX23) [2]: 1.26 | logFC AT1G10585 Basic helix-loop-helix (bHLH) DNA-binding superfamily protein [2]: 0.38 | logFC AT1G15540 2-oxoglutarate and Fe(II)-dependent oxygenase superfamily protein [2]: 0.57 | logFC AT1G19670 Chlorophyllase-1 (CLH1) [2]: 0.63 | logFC AT1G55560 SKU5 similar 14 (SKS14) [2]: 1.71 | logFC AT1G59860 17.6 kDa class I heat shock protein 1 (HSP17.6A) [2]: 0.48 | logFC AT1G59950 NAD(P)-linked oxidoreductase superfamily protein [2]: 1.08 | logFC AT1G75830 Defensin-like protein 1.1 (PDF1.1) [2]: 1.06 | logFC AT1G76640 Calcium-binding EF-hand family protein (CML39) [2]: 0.78 | logFC AT2G02010 Glutamate decarboxylase 4 (GAD4) [2]: 0.55 | logFC AT2G04460 Transposable element gene [2]: 1.16 | logFC AT2G18150 Peroxidase 15 (PER15) [2]: 0.68 | logFC AT2G21900 WRKY transcription factor 59 (WRKY59) [2]: 0.54 | logFC AT2G26010 Defensin-like protein 1.3 (PDF1.3) [2]: 1.47 | logFC AT2G26020 Defensin-like protein 1.2B (PDF1.2B) [2]: 1.52 | logFC AT2G26695 Ran BP2/NZF zinc finger-like superfamily protein [2]: 0.50 | logFC AT2G28210 Alpha carbonic anhydrase 2 (ATACA2) [2]: 0.85 | logFC AT2G37430 Zinc finger protein ZAT11 [2]: 0.42 | logFC AT2G39030 L-ornithine N5-acetyltransferase (NATA1) [2]: 0.56 | logFC AT2G47040 Pectin methylesterase Vanguard1 (VGD1) [2]: 2.80 | logFC AT2G47050 Plant invertase/pectin methylesterase inhibitor superfamily protein [2]: 2.31 | logFC AT3G05610 Pectinesterase/pectinesterase inhibitor 21 (PME21) [2]: 1.80 | logFC AT3G07820 Pectin lyase-like superfamily protein [2]: 2.22 | logFC AT3G09340 Transmembrane amino acid transporter family protein [2]: 0.55 | logFC AT3G11340 UDP-Glycosyltransferase superfamily protein [2]: 0.51 | logFC AT3G13400 SKU5 similar 13 (SKS13) [2]: 0.82 | logFC AT3G28153 Transposable element gene [2]: 0.92 | logFC AT3G28155 ARM repeat superfamily protein [2]: 0.59 | logFC AT3G44830 Putative phospholipid: diacylglycerol acyltransferase 2 (PDAT2) [2]: 0.38 | logFC AT3G62710 Glycosyl hydrolase family protein [2]: 1.35 | logFC AT4G01390 TRAF-like family protein [2]: 0.79 | logFC AT4G21830 Peptide methionine sulfoxide reductase B7 (MSRB7) [2]: 0.55 | logFC AT4G22030 F-box domain, cyclin-like, F-box domain, Skp2-like protein [2]: 0.41 | logFC AT4G22620 SAUR-like auxin-responsive family protein [2]: 0.46 | logFC AT4G24350 Phosphorylase superfamily protein [2]: 0.64 | logFC AT4G26010 Peroxidase 44 (PER44) [2]: 0.53 | logFC AT4G35010 Beta-galactosidase 11 (BGAL11) [2]: 2.03 | logFC AT4G37780 Myb domain protein 87 (MYB87) [2]: 0.41 | logFC AT4G39320 Microtubule-associated protein-related [2]: 0.45 | logFC AT5G03610 GDSL esterase/lipase [2]: 0.42 | logFC AT5G12960 Putative glycosyl hydrolase [2]: 1.33 | logFC AT5G44420 Defensin-like protein 1.2A (PDF1.2A) [2]: 1.58 | logFC AT5G44430 Defensin-like protein 1.2C (PDF1.2C) [2]: 1.75 | logFC AT5G45880 Pollen Ole e 1 allergen and extensin family protein [2]: 1.45 | logFC AT5G52670 Copper transport family protein [2]: 0.57 | logFC AT5G61160 Agmatine coumaroyltransferase (ACT) [2]: 1.13 | logFC AT5G62720 Integral membrane HPP family protein [2]: 0.44 | logFC AT5G63270 RPM1-interacting protein 4 (RIN4) family protein [2]: 0.56 | number of downregulated genes (P≤0.05) ([2]; vs mock): 1119 genes | number of upregulated genes (P≤0.05) ([2]; vs mock): 1102 genes
